Source: ChEMBL document CHEMBL1148679, “A novel iNOS and COX-2 inhibitor from the aerial parts of Rodgersia podophylla” (2006)

Assays:
Settings in all cases: Mus musculus
RAW264.7 [1] = experiment: Decrease in iNOS level in LPS-activated Raw 264.7 cells; type: functional, cell-based
RAW264.7 [2] = experiment: Inhibition of iNOS expression in LPS-activated Raw 264.7 cells at 2 uM; type: functional
RAW264.7 [3] = experiment: Inhibition of COX2 expression in LPS-activated Raw 264.7 cells at 3 uM; type: functional
RAW264.7 [4] = experiment: Decrease in COX2 level in LPS-activated Raw 264.7 cells; type: functional, cell-based

Compound: C/C=C/c1ccc(Oc2ccc(O)cc2)c(C(C)CO)c1 (centres undefined) [RODGERSINOL]
- Activity (RAW264.7 [1]): Dose-dependent effect
- inhibition at 2 µM (RAW264.7 [2]): 50%
- inhibition at 3 µM (RAW264.7 [3]): 50%
- Activity (RAW264.7 [4]): Dose-dependent effect
